Assays:
[1] = system: human retinal endothelial cells; assay: Actin stress fiber formation (rhodamine-phalloidin F-actin staining); assay type: cell-based
Protocol: Passage 12 human retinal endothelial cells (ACBRI 181, Cell Systems Corporation (exclusive distributor for Applied Cell Biology Research Institute), Kirkland, Wash.) were seeded into 16-chamber glass slides coated with 5 μg/cm^2 fibronectin at 5000 cells per well in a total volume of 200 μl of EGM-2 medium (Lonza). The slides were cultured in a 37° C. incubator with 5% CO2 for 48 hours with daily medium changes. Then, the test compounds (DA-DKP, S1P and TNFα), diluted in Hanks Balanced Salt Solution (HBSS; Lonza), were added to give the following final concentrations: DA-DKP (100 μM) (Sigma), TNFα (1 ng/ml) (Sigma), and S1P (1 μM) (Sigma). The slides were incubated with the test compounds for 15 minutes or 3 hours in a 37° C. incubator with 5% CO2. After this incubation, the medium was aspirated, and the cells were fixed using 3.6% formaldehyde in phosphate buffered saline (PBS) for ten minutes at room temperature. All wells were then washed two times with 100 μl PBS. The cells were permeabilized using a 0.1% Triton X-100 in PBS for 5 minutes. All wells were then washed two times with 100 μl PBS, and 50 μl of a 1:40 dilution of rhodamine-phalloidin (Invitrogen) in PBS was added to the cells to stain for F-actin and left on the cells for 20 minutes at room temperature. All wells were then washed two times with 100 μl PBS. Then 100 μl PBS was added to each well and the cells were observed and photographed using an inverted microscope using a rhodamine (ex530/em590) filter.

RhoA = assay: Rho activation assay (GLISA) in retinal endothelial cells; assay type: cell-based, human; settings: for active Rho A levels induced: thrombin alone
Protocol: This experiment was performed using a commercially-available Rho activation assay (GLISA) purchased from Cytoskeleton, Denver, Colo., following the manufacturer's protocol. Briefly, passage 8 or 12 human retinal endothelial cells (ACBRI 181, Applied Cell Biology Research Institute, Kirkland, Wash.) were cultured on fibronectin-coated (1 μg/cm^2) 6-well tissue culture plates using EGM-2 culture medium (Lonza) for 24 hours in a 37° C. incubator with 5% CO2 (30,000 cells/well in total volume of 3 ml). Then, the medium was aspirated and replaced with Ultraculture medium supplemented with 0.1% fetal bovine serum, L-glutamine, sodium pyruvate, penicillin/streptomycin and ITSS (insulin, transferrin sodium selenium) (all from Lonza) to serum starve the cells and reduce the background level of RhoA. The cells were cultured for 24 hours in a 37° C. incubator with 5% CO2. Test compounds diluted in HBSS were placed in the incubator to equilibrate before addition to the cells. Then, 150 μl of each test compound was added to the appropriate culture wells, and the plates were incubated in the incubator for an additional 15 minutes. Then, thrombin was added to appropriate wells. After 1 minute, the cells were washed one time with 1.5 ml phosphate buffered saline and were then lysed with 100 μl GLISA lysis buffer supplemented with protease inhibitors. The extracts were scraped, transferred to microcentrifuge tubes and transferred to ice to preserve the active form of RhoA. All extracts were then cleared of debris by spinning at 10,000 rpms for 2 minutes at 4° C. The supernatants were transferred to new tubes and placed back on ice. Aliquots of each extract were removed for the GLISA assay and for protein determinations. All protein concentrations were within 10%, and the extracts were used at the achieved concentrations (equates to 15 total protein per well). The GLISA assay was performed using the reagents supplied in the kit.

[2] = system: passage 6 human retinal endothelial cells; assay: ECIS transendothelial electrical resistance (TER), passage 6 retinal endothelial cells; assay type: cell-based; settings: for ECIS as compared to untreated cells: monitored 50 hours
Protocol: Assays were performed to determine the effect of MR-DKP (a diketopiperazine wherein R^1 in formula I is the side chain of methionine and R^2 is side chain of arginine) on transendothelial electrical resistance (TER) of passage 6 human retinal endothelial cells (Applied Cell Systems Corporation (exclusive distributor for Applied Cell Biology Research Institute), Kirkland, Wash.). Electrical resistance was measured using the electric cell-substrate impedance sensing (ECIS) system (ECISZθ, obtained from Applied Biophysics) with 8-well multiple electrode plates (8W10E). Each well of the plates was stabilized by adding 250 μl of 10 mM cysteine (Sigma) in sterile water to each well and incubating for 30 minutes at room temperature. The wells were then washed two times with 150 μl of sterile water to remove the cysteine. All wells were then coated with 10 μg/cm^2 collagen by diluting the stock solution (0.5 mg/ml Type IV collagenin 0.25% acetic acid (Sigma) in sterile water and adding 150 μl of the resulting solution to each well. The collagen solution was incubated on the plates at 37° C. for 120 minutes and then removed. The wells were washed two times with 400 μl sterile water to remove the collagen. Next, 400 μl of EGM-2 culture medium (Lonza) was added to each well. The plates were connected to the ECISZθ system and were electrically stabilized. The EGM-2 medium was aspirated and replaced with 400 μl of EGM-2 culture medium containing 100,000 cells per well. The plates were reconnected to the ECISZθ system and incubated for 24 hours in a 37° C. incubator with 5% CO2. The EGM-2 medium was aspirated and replaced with 400 μl of EGM-2 culture medium. The plates were reconnected to the ECISZθ system and incubated for 2 hours in a 37° C. incubator with 5% CO2. Solutions of the test compound in HBSS were prepared and placed in the incubator to equilibrate. The test compound was then added to appropriate wells at the following final concentrations: MR-DKP (50 μM and 100 ECIS (resistance) was monitored for 50 hours.
Example 5 was repeated, except that the diketopiperazine used was YE-DKP (a diketopiperazine wherein R^1 in formula I is the side chain of glutamic acid and R^2 is the side chain of tyrosine). […] The increase was about 20% at its maximum.

[3] = passage 12 cells, 1.0 μM + 0.1 U/ml thrombin
[4] = passage 12 cells, 1.0 μM, no thrombin

For `CCCCCCCCCCCCC/C=C/[C@@H](O)[C@@H](N)COP(=O)(O)O` [S1P, sphingosine-1 phosphate, reference compound], the F-actin staining pattern ([1]; S1P 1 μM alone, 15 minutes and 3 hours) was “actin cortical rings”.
With `COc1cc2ncnc(Nc3ccc(Oc4ccccc4)cc3)c2cc1OC` [Src-1 Inhibitor] the “Mean OD (active RhoA)” value (RhoA; [3]) was 0.534, the “Percent Inhibition vs. Thrombin” value (RhoA; [3]) was 85.85% and the “Mean OD (active RhoA)” value (RhoA; [4]) was 0.349. The “Percent Inhibition vs. Untreated Control” value (RhoA; [4]) was 23.21%.
`O=C(O)CC[C@@H]1NC(=O)[C@H](Cc2ccc(O)cc2)NC1=O` [YE-DKP] was tested, and the “ECIS as compared to untreated cells” value ([2]; 50 μM) was “did not show a significant increase in ECIS”, the “ECIS increase at its maximum” value ([2]; 100 μM) was “about 20%” and the “persistence of ECIS increase” value ([2]; 100 μM) was “persisted for the remainder of the experiment”. For the same compound, the “start of ECIS increase” value ([2]; 100 μM) was “about 6 hours”, the “time at which ECIS increase became significant” value ([2]; 100 μM) was “about 12 hours” and the “time at which resistance increased again” value ([2]; 100 μM) was “about 29 hours”. For the same compound, the “time at which resistance returned to the levels of the control” value ([2]; 100 μM) was “around 28 hours”, the “time of reaching significance again” value ([2]; 100 μM) was “about 33 hours” and the “ECIS as compared to untreated cells” value ([2]; 100 μM) was “increase in ECIS”.
With TNFα [reference compound] the “F-actin staining pattern (stress fibers)” value ([1]; TNFα 1 ng/ml alone, 15 minutes to 3 hours) was “stress fibers were seen at all times”.
Thrombin was tested, and the “Mean OD (active RhoA)” value (RhoA; passage 8 cells, 0.1 U/ml thrombin alone) was 0.561, the “active Rho A levels induced” value (RhoA; passage 8 cells) was “very high” and the “Mean OD (active RhoA)” value (RhoA; passage 12 cells, 0.1 U/ml thrombin alone) was 1.013. For the same compound, the “active Rho A levels induced” value (RhoA; passage 12 cells) was “very high”.

— US20200016152A1, “TREATMENT OF DISEASES” (Ampio Pharmaceuticals, Inc., priority 2010, published 2020)
